We go through 28 compounds from US10479795B2 (Incyte Corporation, priority 2016, dated 2019).

Each structure is given as a SMILES string. Counter-ions that a name gives are not always drawn. A value given as a limit tells only on which side of the number the result lay.

Broadly, the IC50 is the midpoint of a concentration-inhibition curve.

The target of this test is PI3Kγ (p110γ) Recombinant Human Protein (Homo sapiens (Human), UniProt P48736). As to the kind of experiment: PI3K-γ Scintillation Proximity Assay. The class given is biochemical. The settings on record: read-out: PI3Kγ IC50. As to the method: [γ-^33P]ATP (10 mCi/mL) and Wheat Germ Agglutinin (WGA) YSi SPA Scintillation Beads was purchased from Perkin-Elmer (Waltham, Mass.). […] PI3Kγ (p110γ) Recombinant Human Protein was purchased from Life technology (Grand Island, N.Y.). ATP, MgCl2, DTT, EDTA, MOPS and CHAPS were purchased from Sigma-Aldrich (St. Louis, Mo.).
Sequence of PI3Kγ (p110γ) Recombinant Human Protein (P48736 whole entry): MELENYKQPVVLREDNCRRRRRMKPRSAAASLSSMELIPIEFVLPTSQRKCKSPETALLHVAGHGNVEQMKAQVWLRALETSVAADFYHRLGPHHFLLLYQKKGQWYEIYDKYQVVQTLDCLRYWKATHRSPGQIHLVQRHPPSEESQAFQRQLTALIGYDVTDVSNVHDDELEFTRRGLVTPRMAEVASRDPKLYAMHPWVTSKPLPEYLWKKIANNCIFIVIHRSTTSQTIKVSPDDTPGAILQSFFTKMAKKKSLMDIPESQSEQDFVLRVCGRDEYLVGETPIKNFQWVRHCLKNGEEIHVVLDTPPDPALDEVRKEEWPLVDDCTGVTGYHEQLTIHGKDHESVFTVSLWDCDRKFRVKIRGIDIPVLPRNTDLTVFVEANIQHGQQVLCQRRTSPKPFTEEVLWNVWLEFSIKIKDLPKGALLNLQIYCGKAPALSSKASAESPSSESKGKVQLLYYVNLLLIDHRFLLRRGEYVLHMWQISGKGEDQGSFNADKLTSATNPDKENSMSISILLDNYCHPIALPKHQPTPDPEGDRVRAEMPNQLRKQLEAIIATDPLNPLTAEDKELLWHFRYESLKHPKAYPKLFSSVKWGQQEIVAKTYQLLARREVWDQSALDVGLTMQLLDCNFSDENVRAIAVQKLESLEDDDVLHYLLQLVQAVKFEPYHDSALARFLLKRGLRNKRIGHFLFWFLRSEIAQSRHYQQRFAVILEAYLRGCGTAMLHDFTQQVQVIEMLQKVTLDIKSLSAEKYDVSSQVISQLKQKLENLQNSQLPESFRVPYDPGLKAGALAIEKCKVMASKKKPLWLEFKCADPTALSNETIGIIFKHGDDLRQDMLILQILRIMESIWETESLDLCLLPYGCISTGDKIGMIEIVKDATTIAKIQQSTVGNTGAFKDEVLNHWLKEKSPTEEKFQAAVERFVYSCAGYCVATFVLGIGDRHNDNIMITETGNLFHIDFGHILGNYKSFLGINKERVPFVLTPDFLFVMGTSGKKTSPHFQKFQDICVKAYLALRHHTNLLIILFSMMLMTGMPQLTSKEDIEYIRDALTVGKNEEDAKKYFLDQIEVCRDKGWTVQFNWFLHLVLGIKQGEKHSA
The kinase reaction was conducted in polystyrene 384-well Greiner Bio-one white plate from Thermo Fisher Scientific in a final volume of 25 μL. Inhibitors were first diluted serially in DMSO and added to the plate wells before the addition of other reaction components. The final concentration of DMSO in the assay was 2%. The PI3Kγ assay was carried out at room temperature in 20 mM MOPS, pH 6.7, 10 mM MgCl2, 5 mM DTT and CHAPS 0.03%. Reactions were initiated by the addition of ATP, the final reaction mixture consisted of 20 μM PIP2, 2 μM ATP, 0.5 μCi [γ-^33P] […] The final concentration of SPA beads is 1.0 mg/mL. After the plate sealing, plates were shaken overnight at room temperature and centrifuged at 1500 rpm for 10 min, the radioactivity of the product was determined by scintillation counting on Topcount (Perkin-Elmer). IC50 determination was performed by fitting the curve of percent of the solvent control activity versus the log of the inhibitor concentration using the GraphPad Prism 6.0 software.
(In a scintillation proximity assay essentially only radioactivity close to the scintillant gives light.)
Take `Cc1ccc(S(=O)(=O)NC23CCCC(C(C)N4CC(C#N)C4)(C2)C3)cc1-c1cnc2c(N)ncnn12` (stereo not shown) [Example 522, 3-(4-Aminoimidazo[2,1-f][1,2,4]triazin-7-yl)-N-(5-(1-(3-cyanoazetidin-1-yl)ethyl)bicyclo[3.1.1]heptan-1-yl)-4-methylbenzenesulfonamide trifluoroacetate]: the IC50 is below 100 nM.
In the case of `Cc1ccc(S(=O)(=O)N2CCc3nn(C)cc3C2)cc1-c1cnc2c(N)ncnn12` [Example 225, 7-(2-methyl-5-((2-methyl-2,4,6,7-tetrahydro-5H-pyrazolo[4,3-c]pyridin-5-yl)sulfonyl)phenyl)imidazo[2,1-f][1,2,4]triazin-4-amine] it was below 100 nM.
In the case of `Cc1ccc(S(=O)(=O)N2CCN(c3nccnc3C#N)CC2)cc1-c1cnc2c(N)ncnn12` [Example 231, 3-(4-((3-(4-aminoimidazo[2,1-f][1,2,4]triazin-7-yl)-4-methylphenyl)sulfonyl)piperazin-1-yl)pyrazine-2-carbonitrile] it was below 100 nM; in that of `Cc1ccc(S(=O)(=O)Nc2ccc(C(=O)N3CC(O)C3)nc2)cc1-c1cnc2c(N)ncnn12` [Example 242, 3-(4-aminoimidazo[2,1-f][1,2,4]triazin-7-yl)-N-(6-(3-hydroxyazetidine-1-carbonyl)pyridin-3-yl)-4-methylbenzenesulfonamide], below 100 nM; in that of `Cc1ccc(S(=O)(=O)NC(C)(C)CN2CCCC2)cc1-c1cnc2c(N)ncnn12` [Example 239, 3-(4-aminoimidazo[2,1-f][1,2,4]triazin-7-yl)-4-methyl-N-(2-methyl-1-(pyrrolidin-1-yl)propan-2-yl)benzenesulfonamide], 500 to 2000 nM.
In the case of `Cc1ccc(S(=O)(=O)NC23C4C5C2C2C3C4C52C(C)(C)O)cc1-c1cnc2c(N)ncnn12` (stereo not shown) [Example 535, 3-(4-Aminoimidazo[2,1-f][1,2,4]triazin-7-yl)-N-(4-(2-hydroxypropan-2-yl)cuban-1-yl)-4-methylbenzenesulfonamide trifluoroacetate] it was below 100 nM; in that of `Cc1ccc(S(=O)(=O)NCc2ccnn2C)cc1-c1cnc2c(N)ncnn12` [Example 236, 3-(4-aminoimidazo[2,1-f][1,2,4]triazin-7-yl)-4-methyl-N-((1-methyl-1H-pyrazol-5-yl)methyl)benzenesulfonamide], below 100 nM.
With `CC(=O)N1CCN(S(=O)(=O)c2ccc(C)c(-c3cnc4c(N)ncnn34)c2)CC1` [Example 229, 1-(4-((3-(4-aminoimidazo[2,1-f][1,2,4]triazin-7-yl)-4-methylphenyl)sulfonyl)piperazin-1-l)ethan-1-one], the IC50 is below 100 nM.
The same measure for `Cc1ccc(S(=O)(=O)N2CC(C3CCOC3)C2)cc1-c1cnc2c(N)ncnn12` (stereo not shown) [Example 219, 7-(2-methyl-5-((3-(tetrahydrofuran-3-yl)azetidin-1-yl)sulfonyl)phenyl)imidazo[2,1-f][1,2,4]triazin-4-amine]: 100 to 500 nM.
In the case of `Cc1ccc(S(=O)(=O)NC2(C)CCCN(C)C2)cc1-c1cnc2c(N)nc(C(F)(F)F)nn12` (stereo not shown) [Example 526, 3-(4-Amino-2-(trifluoromethyl)imidazo[2,1-f][1,2,4]triazin-7-yl)-N-(1,3-dimethylpiperidin-3-yl)-4-methylbenzenesulfonamide trifluoroacetate] it was below 100 nM; in that of `Cc1ccc(S(=O)(=O)NC23CC(CN(C)C2)C3)cc1-c1cnc2c(N)ncnn12` [Example 523, 3-(4-Aminoimidazo[2,1-f][1,2,4]triazin-7-yl)-4-methyl-N-(3-methyl-3-azabicyclo[3.1.1]heptan-1-yl)benzenesulfonamide trifluoroacetate], below 100 nM; in that of `CC(=O)NC1CCN(S(=O)(=O)c2ccc(C)c(-c3cnc4c(N)ncnn34)c2)CC1` [Example 226, N-(1-((3-(4-aminoimidazo[2,1-f][1,2,4]triazin-7-yl)-4-methylphenyl)sulfonyl)piperidin-4-yl)acetamide], below 100 nM.
In the case of `Cc1ccc(S(=O)(=O)NC2(C)CCN(C3CC(C#N)C3)CC2)cc1-c1cnc2c(N)nc(C(F)(F)F)nn12` (stereo not shown) [Example 529, 3-(4-Amino-2-(trifluoromethyl)imidazo[2,1-f][1,2,4]triazin-7-yl)-N-(1-(3-cyanocyclobutyl)-4-methylpiperidin-4-yl)-4-methylbenzenesulfonamide trifluoroacetate] it was 100 to 500 nM; in that of `Cc1ccc(S(=O)(=O)N2CCN(c3ncccn3)CC2)cc1-c1cnc2c(N)ncnn12` [Example 230, 7-(2-methyl-5-((4-(pyrimidin-2-yl)piperazin-1-yl)sulfonyl)phenyl)imidazo[2,1-f][1,2,4]triazin-4-amine], below 100 nM; in that of `Cc1ccc(S(=O)(=O)NC2(C)CCN(C)CC2)cc1-c1cnc2c(N)nc(C(F)(F)F)nn12` [Example 528, 3-(4-Amino-2-(trifluoromethyl)imidazo[2,1-f][1,2,4]triazin-7-yl)-N-(1,4-dimethylpiperidin-4-yl)-4-methylbenzenesulfonamide trifluoroacetate], below 100 nM.
On to `Cc1ccc(S(=O)(=O)N2CCC(C#N)CC2)cc1-c1cnc2c(N)ncnn12` [Example 217, 1-((3-(4-aminoimidazo[2,1-f][1,2,4]triazin-7-yl)-4-methylphenyl)sulfonyl)piperidine-4-carbonitrile], for which the IC50 was below 100 nM.
The same measure for `Cc1ccc(S(=O)(=O)NCc2cnccn2)cc1-c1cnc2c(N)nc(C(F)(F)F)nn12` [Example 358, 3-(4-amino-2-(trifluoromethyl)imidazo[2,1-f][1,2,4]triazin-7-yl)-4-methyl-N-(pyrazin-2-ylmethyl)benzenesulfonamide]: below 100 nM; for `Cc1ccc(S(=O)(=O)NC23CCCC(C(C)O)(C2)C3)cc1-c1cnc2c(N)ncnn12` (stereo not shown) [Example 521, 3-(4-aminoimidazo[2,1-f][1,2,4]triazin-7-yl)-N-(5-(1-hydroxyethyl)bicyclo[3.1. 1]heptan-1-yl)-4-methylbenzenesulfonamide trifluoroacetate]: below 100 nM; for `COc1ccc(NS(=O)(=O)c2ccc(C)c(-c3cnc4c(N)ncnn34)c2)c(C)n1` [Example 246, 3-(4-aminoimidazo[2,1-f][1,2,4]triazin-7-yl)-N-(6-methoxy-2-methylpyridin-3-yl)-4-methylbenzenesulfonamide]: below 100 nM.
In the case of `Cc1ccc(S(=O)(=O)NC2(C)CCN(C3CCOC3)CC2)cc1-c1cnc2c(N)nc(C(F)(F)F)nn12` (stereo not shown) [Example 530, 3-(4-Amino-2-(trifluoromethyl)imidazo[2,1-f][1,2,4]triazin-7-yl)-4-methyl-N-(4-methyl-1-(tetrahydrofuran-3-yl)piperidin-4-yl)benzenesulfonamide trifluoroacetate] it was 100 to 500 nM; in that of `Cc1ccncc1NS(=O)(=O)c1ccc(C)c(-c2cnc3c(N)ncnn23)c1` [Example 245, 3-(4-aminoimidazo[2,1-f][1,2,4]triazin-7-yl)-4-methyl-N-(4-methylpyridin-3-yl)benzenesulfonamide], below 100 nM.
The same measure for `CC(=O)Nc1ccc(NS(=O)(=O)c2ccc(C)c(-c3cnc4c(N)ncnn34)c2)cn1` [Example 244, N-(5-((3-(4-aminoimidazo[2,1-f][1,2,4]triazin-7-yl)-4-methylphenyl)sulfonamido)pyridin-2-yl)acetamide]: below 100 nM; for `Cc1ccc(S(=O)(=O)NC2(C)CN(C)C2)cc1-c1cnc2c(N)nc(C(F)(F)F)nn12` [Example 532, 3-(4-Amino-2-(trifluoromethyl)imidazo[2,1-f][1,2,4]triazin-7-yl)-N-(1,3-dimethylazetidin-3-yl)-4-methylbenzenesulfonamide]: below 100 nM.
As to `Cc1ccc(S(=O)(=O)NC2(C)CCN(C)C2)cc1-c1cnc2c(N)nc(C(F)(F)F)nn12` (stereo not shown) [Example 533, 3-(4-Amino-2-(trifluoromethyl)imidazo[2,1-f][1,2,4]triazin-7-yl)-N-(1,3-dimethylpyrrolidin-3-yl)-4-methylbenzenesulfonamide trifluoroacetate], the IC50 is below 100 nM.
On to `Cc1ccc(S(=O)(=O)N2CC3(CCOC3)C2)cc1-c1cnc2c(N)ncnn12` [Example 220, 7-(5-((6-oxa-2-azaspiro[3.4]octan-2-yl)sulfonyl)-2-methylphenyl)imidazo[2,1-f][1,2,4]triazin-4-amine], for which the IC50 was below 100 nM.
In the case of `Cc1ccc(S(=O)(=O)N2CCCC(C(F)(F)F)C2)cc1-c1cnc2c(N)ncnn12` (stereo not shown) [Example 218, 7-(2-methyl-5-((3-(trifluoromethyl)piperidin-1-yl)sulfonyl)phenyl)imidazo[2,1-f][1,2,4]triazin-4-amine] it was below 100 nM.
In the case of `Cc1ccc(S(=O)(=O)N2CCc3nc[nH]c3C2)cc1-c1cnc2c(N)ncnn12` [Example 224, 7-(2-methyl-5-((3,4,6,7-tetrahydro-5H-imidazo[4,5-c]pyridin-5-yl)sulfonyl)phenyl)imidazo[2,1-f][1,2,4]triazin-4-amine] it was below 100 nM; in that of `Cc1ccc(S(=O)(=O)N2CCn3ncc(C#N)c3C2)cc1-c1cnc2c(N)ncnn12` [Example 240, 5-((3-(4-aminoimidazo[2,1-f][1,2,4]triazin-7-yl)-4-methylphenyl)sulfonyl)-4,5,6,7-tetrahydropyrazolo[1,4-a]pyrazine-3-carbonitrile], below 100 nM.
